Results from patent US11820754B2, “Polymorphs of an SSAO inhibitor” (Eli Lilly and Company, priority 2020, dated 2023).

Experiment: Competitive slurry study (Form I vs Form II, XRPD of wet cake)
Format: physicochemical
Details: for XRPD Pattern (wet cake): 800 rpm
Protocol: XRPD analyses were performed with techniques and equipments known in the art with Cu K-alpha radiation.
Competitive slurry experiments were performed at 25° C. and 50° C. Saturated solutions of Form I in ACN and acetone at 25° C. and 50° C. were prepared. About 15 mg of Form I and Form II were weighted into the solutions respectively, and the suspensions were slurried for 1 or 3 days at 800 rpm.

Structure (SMILES)	Conversion of form mixture in slurry, as determined by XRPD (25 °C and 50 °C, ACN and acetone, slurried 1 or 3 days)	XRPD Pattern (wet cake) (ACN, 25 °C, slurry time 1 day)	XRPD Pattern (wet cake) (ACN, 25 °C, slurry time 3 days)	XRPD Pattern (wet cake) (ACN, 50 °C, slurry time 1 day)	XRPD Pattern (wet cake) (Acetone, 25 °C, slurry time 1 day)	XRPD Pattern (wet cake) (Acetone, 50 °C, slurry time 1 day)	XRPD Pattern (wet cake) (Acetone, 50 °C, slurry time 3 days)	Relative thermodynamic stability of polymorphic forms (versus Form I, at a temperature of 50 °C or below)
COC1CCN(c2ncc(OC/C(=C/F)CN)cn2)CC1.Cc1ccc(S(=O)(=O)O)cc1 [Form I + Form II]	completely converted to Form II	Form I + Form II	Form II	Form II	Form II	Form I + Form II	Form II	–
COC1CCN(c2ncc(OC/C(=C/F)CN)cn2)CC1.Cc1ccc(S(=O)(=O)O)cc1 [Form II, (2E)-3-fluoro-2-({[2-(4-methoxypiperidin-1-yl)pyrimidin-5-yl]oxy}methyl)prop-2-en-1-aminium 4-methylbenzenesulfonate]	–	–	–	–	–	–	–	more thermodynamically stable
